# Values of other authors in US20140228389A1, “DRY POWDER COMPOUND FORMULATIONS AND USES THEREOF” (Wyeth, LLC, priority 2006, published 2014).
# Experiments:
# opioid receptors = details: found in U.S. Ser. No. 11/441,395 and 11/441,452
# [1] = white crystalline powder from Mallinckrodt Pharmaceuticals
Compound,opioid activity (agonist or antagonist) (opioid receptors),solubility in water [1]
"C[N+]1(CC2CC2)CCC23c4c5ccc(O)c4OC2C(=O)CCC3(O)C1C5 (single isomer, unassigned) [R—N isomer of methylnaltrexone]",opioid antagonist,
"C[N+]1(CC2CC2)CC[C@]23c4c5ccc(O)c4O[C@H]2C(=O)CC[C@@]3(O)[C@H]1C5.[Br-] (stereo partly drawn) [Methylnaltrexone, Methylnaltrexone bromide]",,freely soluble in water
"C[N+]1(CC2CC2)CC[C@]23c4c5ccc(O)c4O[C@H]2C(=O)CC[C@@]3(O)[C@H]1C5.[Br-] (stereo partly drawn) [S—N isomer of methylnaltrexone, S-Methylnaltrexone bromide]",opioid agonist,
